{"source": "paper PMC6934184", "about": "“Selective DNA-PKcs inhibition extends the therapeutic index of localized radiotherapy and chemotherapy” (The Journal of Clinical Investigation, 2019)", "molecular_target": "T1, ALK F1174L (Homo sapiens, UniProt Q9UM73, F1174L)", "T1 construct": "purchased Thermo Fisher Scientific (Life Technologies) SelectScreen", "T1 sequence (Q9UM73 19-1620 F1174L)": "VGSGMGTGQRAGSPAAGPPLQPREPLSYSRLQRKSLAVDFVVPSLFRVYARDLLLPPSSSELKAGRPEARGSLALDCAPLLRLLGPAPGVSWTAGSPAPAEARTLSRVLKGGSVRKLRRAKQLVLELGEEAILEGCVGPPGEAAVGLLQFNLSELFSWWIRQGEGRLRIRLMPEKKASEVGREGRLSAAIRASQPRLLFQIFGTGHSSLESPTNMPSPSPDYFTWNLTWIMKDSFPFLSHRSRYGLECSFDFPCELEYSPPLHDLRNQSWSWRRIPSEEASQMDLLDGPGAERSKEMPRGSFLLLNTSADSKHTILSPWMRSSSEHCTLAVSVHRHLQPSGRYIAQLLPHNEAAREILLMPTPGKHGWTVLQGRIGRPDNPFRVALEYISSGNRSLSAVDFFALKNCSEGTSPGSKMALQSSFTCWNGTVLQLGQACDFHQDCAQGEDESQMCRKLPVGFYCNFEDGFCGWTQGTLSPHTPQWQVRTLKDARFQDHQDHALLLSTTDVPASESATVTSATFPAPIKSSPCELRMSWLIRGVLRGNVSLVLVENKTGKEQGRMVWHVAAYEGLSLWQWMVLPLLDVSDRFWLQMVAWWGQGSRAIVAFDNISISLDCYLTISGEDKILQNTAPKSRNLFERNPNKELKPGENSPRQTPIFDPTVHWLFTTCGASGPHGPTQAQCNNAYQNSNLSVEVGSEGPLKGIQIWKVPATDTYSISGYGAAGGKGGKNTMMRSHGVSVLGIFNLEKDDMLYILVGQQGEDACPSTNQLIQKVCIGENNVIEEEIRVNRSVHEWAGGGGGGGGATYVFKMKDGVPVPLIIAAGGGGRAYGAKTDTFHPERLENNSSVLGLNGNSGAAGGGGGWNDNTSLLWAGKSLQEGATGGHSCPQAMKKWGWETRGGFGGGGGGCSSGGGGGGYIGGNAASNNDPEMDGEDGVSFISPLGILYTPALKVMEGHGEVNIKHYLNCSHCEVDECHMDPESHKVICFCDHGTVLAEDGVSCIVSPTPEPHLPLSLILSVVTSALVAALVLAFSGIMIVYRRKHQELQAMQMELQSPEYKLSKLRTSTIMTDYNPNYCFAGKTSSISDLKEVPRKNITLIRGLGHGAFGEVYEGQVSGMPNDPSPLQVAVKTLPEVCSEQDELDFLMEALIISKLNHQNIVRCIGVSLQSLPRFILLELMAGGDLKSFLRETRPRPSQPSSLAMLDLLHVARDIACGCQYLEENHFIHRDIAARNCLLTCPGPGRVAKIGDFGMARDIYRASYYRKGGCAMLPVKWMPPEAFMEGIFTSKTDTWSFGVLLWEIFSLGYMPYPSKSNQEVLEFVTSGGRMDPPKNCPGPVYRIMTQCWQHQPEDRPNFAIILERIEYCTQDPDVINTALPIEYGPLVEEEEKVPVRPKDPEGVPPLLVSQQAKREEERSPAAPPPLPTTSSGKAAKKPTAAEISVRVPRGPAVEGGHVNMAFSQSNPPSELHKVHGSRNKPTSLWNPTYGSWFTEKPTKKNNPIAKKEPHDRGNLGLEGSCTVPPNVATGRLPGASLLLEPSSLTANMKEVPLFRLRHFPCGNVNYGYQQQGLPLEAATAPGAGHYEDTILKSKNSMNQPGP", "experiment": "SelectScreen LanthaScreen", "format": "binding", "details": "read-out: % displacement", "procedure,_shortened": "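SelectScreen broad panel; activity (Z'LYTE, Adapta) plus binding formats. ATP: Km app for CSF1R Z'LYTE; 10 for CAMK1 Adapta. Readout = % per kinase.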", "data": [{"compound": "CN(C(=O)CN1CCOCC1)c1ccc2sc3c(-c4cccc5c(=O)cc(N6CC7CCC(C6)O7)oc45)cccc3c2c1", "note": "[NU5455]", "values": [{"measurement": "inhibition at 1 µM", "result": 1.6, "unit": "%"}]}]}
